From patent publication US20070281865A1, “MULTI-FUNCTIONAL SPACER FOR GLYCANS” (priority 2006, published 2007)
“Also recorded” adds a separate entry of the source.

B1: Glycan 4: Ceruloplasmine mixture of bi and tri- and tetra-antenary N-glycans (protein, UniProt P00450 20-1065, looked up)
Ceruloplasmin: KEKHYYIGIIETTWDYASDHGEKKLISVDTEHSNIYLQNGPDRIGRLYKKALYLQYTDETFRTTIEKPVWLGFLGPIIKAETGDKVYVHLKNLASRPYTFHSHGITYYKEHEGAIYPDNTTDFQRADDKVYPGEQYTYMLLATEEQSPGEGDGNCVTRIYHSHIDAPKDIASGLIGPLIICKKDSLDKEKEKHIDREFVVMFSVVDENFSWYLEDNIKTYCSEPEKVDKDNEDFQESNRMYSVNGYTFGSLPGLSMCAEDRVKWYLFGMGNEVDVHAAFFHGQALTNKNYRIDTINLFPATLFDAYMVAQNPGEWMLSCQNLNHLKAGLQAFFQVQECNKSSSKDNIRGKHVRHYYIAAEEIIWNYAPSGIDIFTKENLTAPGSDSAVFFEQGTTRIGGSYKKLVYREYTDASFTNRKERGPEEEHLGILGPVIWAEVGDTIRVTFHNKGAYPLSIEPIGVRFNKNNEGTYYSPNYNPQSRSVPPSASHVAPTETFTYEWTVPKEVGPTNADPVCLAKMYYSAVEPTKDIFTGLIGPMKICKKGSLHANGRQKDVDKEFYLFPTVFDENESLLLEDNIRMFTTAPDQVDKEDEDFQESNKMHSMNGFMYGNQPGLTMCKGDSVVWYLFSAGNEADVHGIYFSGNTYLWRGERRDTANLFPQTSLTLHMWPDTEGTFNVECLTTDHYTGGMKQKYTVNQCRRQSEDSTFYLGERTYYIAAVEVEWDYSPQREWEKELHHLQEQNVSNAFLDKGEFYIGSKYKKVVYRQYTDSTFRVPVERKAEEEHLGILGPQLHADVGDKVKIIFKNMATRPYSIHAHGVQTESSTVTPTLPGETLTYVWKIPERSGAGTEDSACIPWAYYSTVDQVKDLYSGLIGPLIVCRRPYLKVFNPRRKLEFALLFLVFDENESWYLDDNIKTYSDHPEKVNKDDEEFIESNKMHAINGRMFGNLQGLTMHVGDEVNWYLMGMGNEIDLHTVHFHGHSFQYKHRGVYSSDVFDIFPGTYQTLEMFPRTPGIWLLHCHVTDHIHAGMETTYTVLQNEDTKSG
modifications: N-glycans

Assays:
[1] = pKa of deprotected spacer; assay type: physicochemical
[2] = tested on: anti-carbohydrate antibodies in sera of metastatic breast cancer patients; assay: Sera of metastatic breast cancer patients on glycan array; assay type: binding, Human; details: sera 1:25; 9 MBC patients, 10 healthy
Description: Individual (not pooled) sera were collected from 9 patients who were diagnosed with metastatic breast cancer (MBC). Blood samples were collected before treatment, so that therapeutic intervention would not interfere with patient immune responses. One patient with breast cancer but with good prognosis (IDC, Stage 1) was also included in the study. As control, or “healthy” sera, sera from ten healthy individuals, 5 female and 5 male, with no known malignancies was collected.
(§1) Sera were diluted 1:25 with PBS containing 3% BSA, and placed on the glycan array slide in humidified chamber at room temperature for 90 min. The glycan array slide was then rinsed gently with PBS/0.05% Tween, incubated with biotinylated goat antibody against human IgG, IgM and IgA, rinsed in PBS/0.05% Tween, and incubated with streptavidin-Alexa488 fluorescent dye. Following rinses in PBS/0.05% Tween and H2O, glycan array slides were dried and scanned using the commercial DNA array scanner. […] Signal to background was typically greater 50:1 and no background subtractions were performed. Data were plotted using MS Excel software.

[3] = tested on: antibodies in serum of patients who received porcine fetal pancreas islet-like cell clusters; assay: Sera of xenotransplant recipients on glycan array; assay type: binding, Human; details: before and 1, 6, 12 months after transplantation
Description: In 1991-1994, several diabetic (I) patients received transplantation of porcine fetal pancreas islet-like cell clusters (ICC). See, Groth, C. G. et al. Transplantation of porcine fetal pancreas to diabetic patients, The Lancet 344: 1402-4 (1994). The inventor analyzed serum from three of these patients before transplant (t=0), 1 months after (t=1), 6 months after (t=2) and 12 months after (t=3) transplant.
as §1, with “as needed” for “1:25”

[4] = tested on: Human anti-HIV 2G12 monoclonal antibody; assay: 2G12 binding on glycan array; details: for binding of 2G12 antibody (in words): glycan array, 2G12 30 μg/mL pre-complexed with goat anti-human-IgG-FITC
Text: Glycan array fabrication.
Glycan Binding Protein binding assay. […] Saliva samples were similarly handled.
Image acquisition and signal processing. […] Data were plotted using MS Excel software.

Concanavalin A (Con A) = Concanavalin A (Con A) (Canavalia ensiformis, UniProt P02866); details: printing times up to 5 hours

Molecule | serum antibodies against glycan in metastatic breast cancer patients versus healthy individuals (in words) [2] | binding of 2G12 antibody (in words) [4] | other results
C=CCCONC [Compound 1033] | – | – | pKa1 [1]: 4.8
CC(=O)N[C@H]1[C@H](O[C@H]2[C@@H](O)[C@@H](CO)O[C@@H](O[C@H]3[C@H](O)[C@@H](O)C(O)O[C@@H]3CO)[C@@H]2O)O[C@H](CO)[C@@H](O)[C@@H]1O (stereo partly drawn) [LNT-2, GlcNAc-beta3-Gal-beta4-Glc-beta] | bind and higher | – | –
Fucose-alpha2-Gal-beta3-GalNAc-beta3-Gal-alpha-4-Gal-beta4-Glc [Globo-H] | bind and higher | – | –
Gal-beta3-GalNAc-beta4-[Neu5Ac-alpha3]-Gal-beta4-Glc-beta [GM1] | bind and higher | – | –
Galβ1-4(Fucα1-3)GlcNAcβSp [Glycan 65] | – | – | serum antibodies against glycan in xenotransplant recipients (in words) [3]: do not have antibodies; also recorded: essentially no anti-LeX antibodies are detected
Manα1-2Manα1-2Manα1-3(Manα1-2Manα1-3(Manα1-2Manα1-6)Manα1-6)Manβ1-4GlcNAcβ1-4GlcNAcβSp [Glycan 145] | – | – | binding of 2G12 antibody (in words) ([4]; listed as Man9): relatively weakly bound; binding of 2G12 antibody (in words) ([4]; listed as Man-9-N-glycans): smaller level of binding
Manα1-2Manα1-3(Manα1-2Manα1-6)ManαSp [Glycan 136] | – | strong binding | Rel. spec. (Relative binding activity) ([4]; binding of 2G12 to mannose containing glycans in the glycan array): +++ (+++ > 25,000); variation in maximal binding of con A (Concanavalin A (Con A)): less than 10%
Manα1-2Manα1-6(Manα1-3)Manα1-6(Manα1-2Manα1-3)Manβ1-4GlcNAcβ1-4GlcNAcβSp [Glycan 144] | – | strong preference for binding | –
Manα1-3Manα1-6(Manα1-2Manα1-3)Manβ1-4GlcNAcβ1-4GlcNAcβSp [Glycan 140] | – | did not support binding at all | –
Manα1-6(Manα1-2Manα1-3)Manα1-6(Manα1-2Manα1-3)Manβ1-4GlcNAcβ1-4GlcNAcβSp [Glycan 143] | – | did not support binding at all | –
Manα1-6(Manα1-3)Manα1-6(Manα1-2Manα1-3)Manβ1-4GlcNAcβ1-4GlcNAcβSp [Glycan 142] | – | did not support binding at all | –
Neu5Acα2-6GalNAcα- | significantly higher levels | – | –
Neu5Gc(2-6)GalNAc | bind | – | –
B1 | bind and significantly higher levels | – | –
